These results are taken from ChEMBL document CHEMBL1201862, “PubChem BioAssay data set” (2004).

Some test systems named below: UO-31; SK-MEL-2; UACC-62; SF-268; MOLT-4; HOP-62; NCI/ADR-RES; OVCAR-5; SK-MEL-28; NCI-H522; PC-3; SN12C; A549; SK-OV-3; MDA-MB-435; DU-145; NCI-H460; HCT-15; A498; HOP-92.
Common to all, as to test: inhibition of tumour cell growth, NCI panel, 48 h

“And” between values parts separate entries of the source, which are not always exact repeats. Equal values may be shown once.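 96-well plates; 48 h exposure; 5 concentrations. Endpoints by linear interpolation between flanking doses. Not reached: highest tested concentration assigned. GI50 marks 50% less growth.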 The source made the active and inactive calls. No stated cut-off is given here; in the data, active = GI50 up to about 1.1 µM and inactive = higher.

On to `CSc1nc(O)c(C#N)c(-c2ccc(Cl)cc2)n1`, for which the GI50 in the experiment with UO-31 is 36.5 µM (inactive); with SK-MEL-2 it was > 100 µM (inactive); in the experiment with UACC-62, 73.6 µM (inactive); with SF-268, > 100 µM (inactive); in the experiment with MOLT-4, > 100 µM (inactive); with HOP-62, > 100 µM (inactive). Moreover, the GI50 in the experiment on NCI/ADR-RES was > 100 µM (inactive); with OVCAR-5, > 100 µM (inactive); in the experiment on SK-MEL-28, > 100 µM (inactive); in the experiment on NCI-H522 it was 51.8 µM (inactive); in the experiment on PC-3, 91.4 µM (inactive); in the experiment on SN12C, > 100 µM (inactive). Also, the GI50 in the experiment with A549 was > 100 µM (inactive); in the experiment on SK-OV-3, > 100 µM (inactive); in the experiment on MDA-MB-435 it was > 100 µM (inactive); in the experiment with DU-145, > 100 µM (inactive); in the experiment with NCI-H460 it was > 100 µM (inactive); with HCT-15, > 100 µM. Further, the GI50 in the experiment on A498 is 74.6 µM (inactive); in the experiment with HOP-92, 24.8 µM (inactive).

With `C=C(Cl)C(Cl)(CBr)CCC(Br)C(C)(C)Cl` (stereo not given), the GI50 in the experiment on UO-31 was 1.85 µM (inactive) and 6.27 µM (inactive) and 1.99 µM (inactive); in the experiment with SK-MEL-2 it was 1.31 µM (inactive); with UACC-62, 3.72 µM (inactive) and 1.07 µM (active) and 3.47 µM (inactive); in the experiment on SF-268 it was 3.03 µM (inactive) and 735 nM (active) and 1.35 µM (inactive); in the experiment with MOLT-4, 20.6 µM (inactive) and 10.1 µM (inactive) and 13.5 µM (inactive); in the experiment on HOP-62, 703 nM (active) and 785 nM (active) and 1.43 µM (inactive). In addition, the GI50 in the experiment with NCI/ADR-RES was 12 µM (inactive) and 2.44 µM (inactive) and 1.83 µM (inactive); in the experiment on OVCAR-5, 1.93 µM (inactive) and 14.7 µM (inactive) and 3.42 µM (inactive); in the experiment on SK-MEL-28, 1.73 µM (inactive) and 11.5 µM (inactive) and 2.28 µM (inactive); in the experiment on NCI-H522, 16 µM (inactive) and 13.8 µM (inactive) and 14.3 µM (inactive); in the experiment on PC-3, 1.6 µM (inactive) and 904 nM (active) and 1 µM (active); in the experiment on SN12C it was 14.7 µM (inactive) and 4.2 µM (inactive) and 6.62 µM (inactive). The GI50 is 4.36 µM (inactive) and 2.48 µM (inactive) and 3.09 µM (inactive) with A549; 2.36 µM (inactive) and 27.2 µM (inactive) in the experiment on SK-OV-3; 2.18 µM (inactive) and 11.1 µM (inactive) and 1.77 µM (inactive) in the experiment with MDA-MB-435; 2.76 µM (inactive) and 1.38 µM (inactive) in the experiment on DU-145; 2.34 µM (inactive) and 1.57 µM (inactive) and 1.45 µM (inactive) with NCI-H460; 2.07 µM and 13.3 µM and 3.18 µM in the experiment with HCT-15. Also, the GI50 is 1.63 µM (inactive) and 2.79 µM (inactive) and 2.03 µM (inactive) with A498; 2.63 µM (inactive) and 1.42 µM (inactive) and 1.35 µM (inactive) with HOP-92.

`Cc1c2c(c(C)n1-c1ccccc1)C(=O)N(CCSC(=N)N)C2=O`: the GI50 with UO-31 is > 100 µM (inactive); with SK-MEL-2 it was 31.4 µM (inactive); in the experiment with UACC-62, > 100 µM (inactive); in the experiment with SF-268 it was > 100 µM (inactive); in the experiment with MOLT-4, 14.2 µM (inactive); in the experiment with HOP-62, 83.6 µM (inactive). The GI50 in the experiment with NCI/ADR-RES was 59.6 µM (inactive); in the experiment on OVCAR-5 it was > 100 µM (inactive); in the experiment with SK-MEL-28, > 100 µM (inactive); with NCI-H522 it was 35.7 µM (inactive); in the experiment on PC-3, > 100 µM (inactive); with SN12C, > 100 µM (inactive). Further, the GI50 in the experiment with A549 was > 100 µM (inactive); with SK-OV-3 it was > 100 µM (inactive); with MDA-MB-435 it was 93.3 µM (inactive); in the experiment with DU-145, > 100 µM (inactive); in the experiment on NCI-H460, 12.3 µM (inactive); with HCT-15 it was > 100 µM. The GI50 in the experiment with A498 is 32.4 µM (inactive); in the experiment on HOP-92 it was > 100 µM (inactive).

Consider `Nc1ncnc2c1ncn2[C@H]1C=C[C@@H](NO)C1`, for which the GI50 in the experiment on UO-31, in the experiment with SK-MEL-2, with UACC-62, in the experiment on SF-268, in the experiment with MOLT-4 and in the experiment with HOP-62 was > 100 µM (inactive) each time. Also, the GI50 in the experiment with NCI/ADR-RES, with OVCAR-5, in the experiment on SK-MEL-28, with NCI-H522, with PC-3 and in the experiment on SN12C was > 100 µM (inactive) each time. Besides, the GI50 is > 100 µM (inactive) in the experiment on A549; > 100 µM (inactive) in the experiment on SK-OV-3; > 100 µM (inactive) in the experiment with MDA-MB-435; > 100 µM (inactive) in the experiment with DU-145; > 100 µM (inactive) in the experiment with NCI-H460; > 100 µM in the experiment on HCT-15. For the same compound, the GI50 with A498 and in the experiment with HOP-92 was > 100 µM (inactive) each time.

Regarding `Cn1c(=O)nc2n(-c3ccc(Cl)cc3)c3cc(Cl)ccc3nc-2c1=O`, the GI50 was 11.4 µM (inactive) in the experiment on UO-31; 2.55 µM (inactive) in the experiment on SK-MEL-2; 1.88 µM (inactive) with UACC-62; 3.08 µM (inactive) with SF-268; 3.61 µM (inactive) in the experiment on MOLT-4; 18.1 µM (inactive) with HOP-62. Also, the GI50 in the experiment on NCI/ADR-RES is 8.51 µM (inactive); with OVCAR-5, 15 µM (inactive); with SK-MEL-28, 3.2 µM (inactive); with NCI-H522, 2.99 µM (inactive); in the experiment with PC-3 it was 9.42 µM (inactive); with SN12C, 6.21 µM (inactive). Besides, the GI50 in the experiment with A549 is 12.9 µM (inactive); in the experiment on SK-OV-3, 18.3 µM (inactive); with MDA-MB-435, 1.68 µM (inactive); in the experiment on DU-145 it was 15.6 µM (inactive); in the experiment on NCI-H460 it was 10 µM (inactive); in the experiment with HCT-15 it was 1.82 µM. In addition, the figures for the GI50 in the experiment with A498 and in the experiment on HOP-92 were 14.3 µM (inactive) and 7.31 µM (inactive), respectively.

As for `COC(=O)C1=C(C(=O)OC)N(c2ccncc2)C(c2ccco2)=CC1c1ccccc1[N+](=O)[O-]` (stereo not given), the GI50 was 3.57 µM (inactive) in the experiment on UO-31; 18.2 µM (inactive) with SK-MEL-2; 9.91 µM (inactive) in the experiment with UACC-62; 4.72 µM (inactive) with SF-268; 2.16 µM (inactive) in the experiment with MOLT-4; 15.5 µM (inactive) with HOP-62. Moreover, the GI50 in the experiment with NCI/ADR-RES is 12.1 µM (inactive); with OVCAR-5, 14.6 µM (inactive); in the experiment on SK-MEL-28, 6.32 µM (inactive); in the experiment with NCI-H522 it was 2.03 µM (inactive); in the experiment on PC-3 it was 11.5 µM (inactive); in the experiment with SN12C, 4.71 µM (inactive). Also, the GI50 is 10.3 µM (inactive) in the experiment on A549; 16.8 µM (inactive) with SK-OV-3; 6.15 µM (inactive) in the experiment with MDA-MB-435; 5.24 µM (inactive) with DU-145; 6.11 µM (inactive) with NCI-H460; 1.89 µM in the experiment with HCT-15. The GI50 is 5.24 µM (inactive) with A498 and 14.1 µM (inactive) in the experiment on HOP-92.

On to `CC(=O)NNc1nc(C)c(C(/C=C/c2ccc([N+](=O)[O-])cc2)=N/N)s1`, for which the GI50 with UO-31 is > 100 µM (inactive); with SK-MEL-2, > 100 µM (inactive); in the experiment on UACC-62 it was > 100 µM (inactive); in the experiment with SF-268 it was > 100 µM (inactive); with MOLT-4 it was > 100 µM (inactive); in the experiment on HOP-62 it was 68.1 µM (inactive). Besides, the GI50 in the experiment on NCI/ADR-RES was > 100 µM (inactive); with OVCAR-5 it was > 100 µM (inactive); in the experiment on SK-MEL-28, > 100 µM (inactive); in the experiment with NCI-H522, > 100 µM (inactive); with PC-3 it was > 100 µM (inactive); with SN12C, 84.5 µM (inactive). In addition, the GI50 is > 100 µM (inactive) with A549; 41.3 µM (inactive) in the experiment with SK-OV-3; > 100 µM (inactive) with MDA-MB-435; 96.4 µM (inactive) in the experiment with DU-145; > 100 µM (inactive) in the experiment on NCI-H460; > 100 µM in the experiment on HCT-15. In addition, the GI50 in the experiment on A498 is 70.5 µM (inactive); in the experiment with HOP-92, > 100 µM (inactive).

With `COc1ccc2c(c1)/C(=C\c1c(Cl)nc3sc(C)cn13)C(=O)N2`, the GI50 in the experiment on UO-31 was 5.45 µM (inactive); with SK-MEL-2, 2.87 µM (inactive); in the experiment with UACC-62, 3.29 µM (inactive); with SF-268, 4.31 µM (inactive); in the experiment on MOLT-4, 1.54 µM (inactive); in the experiment on HOP-62, 6.4 µM (inactive). Besides, the GI50 in the experiment with NCI/ADR-RES was 3.56 µM (inactive); in the experiment with OVCAR-5, 9.59 µM (inactive); in the experiment on SK-MEL-28 it was 8.17 µM (inactive); in the experiment with NCI-H522 it was 3.05 µM (inactive); in the experiment with PC-3 it was 2.78 µM (inactive); in the experiment on SN12C, 7.05 µM (inactive). For the same compound, the GI50 in the experiment on A549 is 3.79 µM (inactive); in the experiment with SK-OV-3, 4.03 µM (inactive); in the experiment with MDA-MB-435 it was 0.286 µM (active); with DU-145 it was 5.74 µM (inactive); with NCI-H460, 2.51 µM (inactive); in the experiment with HCT-15 it was 2.62 µM. Moreover, the GI50 in the experiment on A498 was 3.7 µM (inactive); in the experiment with HOP-92, 10.6 µM (inactive).

For `C[C@]12OC(=O)[C@]3(O)CC[C@H]4[C@@H](C[C@@H](O)[C@@]5(Cl)CC=CC(=O)[C@]45C)[C@]45OCC6C(=O)O[C@@H]1C[C@@]6(C)[C@H](C4=O)[C@@]32O5` (stereo not given in full), the GI50 is 1.23 µM (inactive) in the experiment with UO-31; 1.17 µM (inactive) in the experiment with SK-MEL-2; 0.879 µM (active) with UACC-62; 0.767 µM (active) in the experiment on SF-268; 0.615 µM (active) in the experiment with MOLT-4; 2.78 µM (inactive) in the experiment on HOP-62. Moreover, the GI50 in the experiment on NCI/ADR-RES was 2.6 µM (inactive); with OVCAR-5 it was 1.4 µM (inactive); in the experiment with SK-MEL-28, 1.49 µM (inactive); in the experiment with NCI-H522, 0.16 µM (active); with PC-3, 2.3 µM (inactive); with SN12C it was 1.86 µM (inactive). Besides, the GI50 in the experiment on A549 is 3.37 µM (inactive); with SK-OV-3 it was 3.5 µM (inactive); with MDA-MB-435, 2 µM (inactive); with DU-145, 3.82 µM (inactive); with NCI-H460 it was 1.89 µM (inactive); with HCT-15 it was 1.46 µM. The GI50 was 1.37 µM (inactive) with A498 and 1.42 µM (inactive) in the experiment on HOP-92.
